ChEMBL document CHEMBL6096654, “Allosteric inhibition of PTP1B by bromocatechol-chalcone derivatives” (Eur J Med Chem, 2025)
The source made the active and inactive calls. The calls are words filed in the database; no cut-off is given here.

Key:
[1] = biological target: T1, Tyrosine-protein phosphatase non-receptor type 11 (Homo sapiens, UniProt Q06124); assay: Inhibition of SHP2 (unknown origin) using pNPP as substrate incubated for 30 mins by spectrophotometry
T1 sequence (Q06124 whole entry): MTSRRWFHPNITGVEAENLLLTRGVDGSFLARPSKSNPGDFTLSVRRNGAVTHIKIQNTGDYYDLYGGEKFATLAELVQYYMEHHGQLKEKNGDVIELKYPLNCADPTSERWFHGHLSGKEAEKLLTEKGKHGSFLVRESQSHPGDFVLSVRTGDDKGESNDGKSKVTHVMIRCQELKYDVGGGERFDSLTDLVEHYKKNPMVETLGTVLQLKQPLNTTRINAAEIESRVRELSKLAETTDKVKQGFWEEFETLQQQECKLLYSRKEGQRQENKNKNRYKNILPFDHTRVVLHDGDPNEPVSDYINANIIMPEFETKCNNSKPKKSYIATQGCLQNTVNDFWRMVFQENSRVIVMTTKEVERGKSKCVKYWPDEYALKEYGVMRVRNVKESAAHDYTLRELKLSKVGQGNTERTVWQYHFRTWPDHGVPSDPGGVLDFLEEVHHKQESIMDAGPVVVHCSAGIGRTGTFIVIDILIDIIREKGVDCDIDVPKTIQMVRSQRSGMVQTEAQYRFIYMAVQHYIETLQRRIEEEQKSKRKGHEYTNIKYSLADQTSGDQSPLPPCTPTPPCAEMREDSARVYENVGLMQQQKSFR

[2] = Toxicity in BKD db/db mouse assessed as effect on body weight at 40 to 80 mg/kg/day, po qd for 8 weeks; format: organism-based; settings: in vivo, 1344 h, dose 40-80 mg/kg/day
Mus musculus [3] = assay: Hypoglycemic activity in BKD db/db mouse assessed as increase in insulin receptor phosphorylation in liver at 40 to 80 mg/kg/day, po for 8 weeks by Western blot analysis; format: functional, organism-based; settings: dose 40-80 mg/kg/day
Mus musculus [4] = assay: Hypoglycemic activity in BKD db/db mouse assessed as increase in AKT phosphorylation in liver at 40 to 80 mg/kg/day, po for 8 weeks by Western blot analysis; format: functional, organism-based; settings: dose 40-80 mg/kg/day
[5] = Acute toxicity in Kunming mouse assessed as animal mortality at 2000 mg/kg, po measured for 14 days; format: organism-based; settings: in vivo, 336 h, time 14 day
[6] = Acute toxicity in Kunming mouse assessed as change in cell morphology of kidney at 2000 mg/kg, po measured for 14 days by H and E staining based analysis; format: organism-based; settings: in vivo, 336 h, time 14 day
[7] = Toxicity in BKD db/db mouse assessed as effect on epididymal white adipose tissue weight at 40 to 80 mg/kg/day, po qd for 8 weeks; format: organism-based; settings: in vivo, 1344 h, dose 40-80 mg/kg/day
[8] = Toxicity in BKD db/db mouse assessed as effect on food intake at 40 to 80 mg/kg/day, po qd for 8 weeks; format: organism-based; settings: in vivo, 1344 h, dose 40-80 mg/kg/day
Mus musculus [9] = assay: Hypoglycemic activity in BKD db/db mouse assessed as increase in AKT phosphorylation in epididymal white adipose tissue at 40 to 80 mg/kg/day, po for 8 weeks by Western blot analysis; format: functional, organism-based; settings: dose 40-80 mg/kg/day
[10] = Toxicity in BKD db/db mouse assessed as effect on subcutaneous fat weight at 40 to 80 mg/kg/day, po qd for 8 weeks; format: organism-based; settings: in vivo, 1344 h, dose 40-80 mg/kg/day
[11] = Acute toxicity in Kunming mouse assessed as change in cell morphology of liver at 2000 mg/kg, po measured for 14 days by H and E staining based analysis; format: organism-based; settings: in vivo, 336 h, time 14 day
C2C12 [12] = assay: Inhibition of insulin-resistance in insulin-resistant mouse C2C12 cells assessed as increase in AKT phosphorylation pretreated for 24 hrs followed by compound washout and further addition of insulin measured after 20 mins by Western blot analysis; format: functional, cell-based; settings: dose 0.625-2.5 µM
[13] = biological target: T2, Tyrosine-protein phosphatase non-receptor type 1 (Homo sapiens, UniProt P18031); assay: Binding affinity to PTP1B (unknown origin) assessed as dissociation constant by SPR analysis
T2 sequence (P18031 whole entry): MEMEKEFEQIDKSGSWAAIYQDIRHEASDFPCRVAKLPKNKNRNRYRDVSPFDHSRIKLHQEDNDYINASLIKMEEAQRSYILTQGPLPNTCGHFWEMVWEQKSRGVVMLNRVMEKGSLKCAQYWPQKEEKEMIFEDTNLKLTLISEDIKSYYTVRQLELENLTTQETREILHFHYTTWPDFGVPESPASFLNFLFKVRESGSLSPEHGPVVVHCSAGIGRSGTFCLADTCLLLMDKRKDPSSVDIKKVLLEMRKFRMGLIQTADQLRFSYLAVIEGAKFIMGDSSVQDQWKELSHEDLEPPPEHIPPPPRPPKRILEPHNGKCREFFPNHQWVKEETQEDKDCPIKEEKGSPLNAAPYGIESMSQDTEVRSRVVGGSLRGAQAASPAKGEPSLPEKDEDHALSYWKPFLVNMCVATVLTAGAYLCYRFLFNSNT

3T3-L1 = assay: Inhibition of insulin-resistance in insulin-resistant mouse 3T3-L1 cells assessed as increase in AKT phosphorylation pretreated for 24 hrs followed by compound washout and further addition of insulin measured after 20 mins by Western blot analysis; format: functional, cell-based; settings: dose 0.625-2.5 µM
HepG2 [14] = assay: Inhibition of insulin-resistance in insulin-resistant human HepG2 cells assessed as increase in AKT phosphorylation pretreated for 24 hrs followed by compound washout and further addition of insulin measured after 20 mins by Western blot analysis; format: functional, cell-based; settings: dose 0.625-2.5 µM
Hepatocyte [15] = assay: Inhibition of insulin-resistance in insulin-resistant C57BL/J mouse […] primary hepatocytes assessed as increase in insulin receptor phosphorylation pretreated for 24 hrs followed by compound washout and further addition of insulin measured after 20 mins by Western blot analysis; format: functional, cell-based; settings: dose 0.625-2.5 µM
[16] = Toxicity in BKD db/db mouse assessed as effect on liver weight at 40 to 80 mg/kg/day, po qd for 8 weeks; format: organism-based; settings: in vivo, 1344 h, dose 40-80 mg/kg/day
Mus musculus [17] = assay: Hypoglycemic activity in BKD db/db mouse assessed as decrease in serum insulin level at 40 to 80 mg/kg/day, po qd for 7 weeks; format: functional, organism-based; settings: dose 40-80 mg/kg/day
[18] = Acute toxicity in Kunming mouse assessed as change in cell morphology of heart at 2000 mg/kg, po measured for 14 days by H and E staining based analysis; format: organism-based; settings: in vivo, 336 h, time 14 day
Hepatocyte [19] = assay: Inhibition of insulin-resistance in insulin-resistant C57BL/J mouse […] primary hepatocytes assessed as increase in AKT phosphorylation pretreated for 24 hrs followed by compound washout and further addition of insulin measured after 20 mins by Western blot analysis; format: functional, cell-based; settings: dose 0.625-2.5 µM
C2C12 [20] = assay: Inhibition of insulin-resistance in insulin-resistant mouse C2C12 cells assessed as increase in insulin receptor phosphorylation pretreated for 24 hrs followed by compound washout and further addition of insulin measured after 20 mins by Western blot analysis; format: functional, cell-based; settings: dose 0.625-2.5 µM
Mus musculus [21] = assay: Hypoglycemic activity in BKD db/db mouse assessed as decrease in blood glucose level at 40 to 80 mg/kg/day, po for 7 weeks followed by insulin injection by […] method; format: functional, organism-based; settings: dose 40-80 mg/kg/day
HepG2 [22] = assay: Induction of glucose uptake in human HepG2 cells cultured in low glucose medium containing compound for 24 hrs; format: functional, cell-based; settings: dose 0.625-2.5 µmol/L
[23] = Acute toxicity in Kunming mouse assessed as toxic effects at 2000 mg/kg, po measured for 14 days; format: organism-based; settings: in vivo, 336 h, time 14 day

CCOc1ccc(Oc2ccc(C(=O)/C=C/c3cc(O)c(O)c(Br)c3Br)cc2)cc1
IC50 [1]: > 20000 nM
Activity [2]: Non-toxic
Activity (Mus musculus [3]): Active
Activity (Mus musculus [4]): Active
Activity [5]: Non-toxic
Activity [6]: Non-toxic
Activity [7]: Non-toxic
Activity [8]: Non-toxic
Activity (Mus musculus [9]): Active
Activity [10]: Non-toxic
Activity [11]: Non-toxic
inhibition (C2C12 [12]): Dose-dependent-effect
Kd [13]: 61.2 nM
inhibition (3T3-L1): Dose-dependent-effect
inhibition (HepG2 [14]): Dose-dependent-effect
inhibition (Hepatocyte [15]): Dose-dependent-effect
Activity [16]: Non-toxic
Activity (Mus musculus [17]): Active
Activity [18]: Non-toxic
inhibition (Hepatocyte [19]): Dose-dependent-effect
inhibition (C2C12 [20]): Dose-dependent-effect
Activity (Mus musculus [21]): Active
Activity (HepG2 [22]): Dose-dependent-effect
Activity [23]: Non-toxic
